According to patent US9770025B2, “Fungicidal compositions” (Syngenta Participations AG, priority 2013, dated 2017):

Experiments:
Assay type in all cases: cell-based
Alternaria solani = Alternaria solani liquid culture growth inhibition; settings: for (B2) Inhibition (%) / (B4) Inhibition (%) / (B5) Inhibition (%): PDB; for (B2) Inhibition (%): Table 9; for (B4) Inhibition (%): Table 11; for (B5) Inhibition (%): Table 13
Protocol: (§1) Liquid Culture Tests in Well Plates
Mycelia fragments or conidia suspensions of a fungus, prepared either freshly from liquid cultures of the fungus or from cryogenic storage, were directly mixed into nutrient broth. DMSO solutions of the test compound (max. 10 mg/ml) was diluted with 0.025% Tween20 by factor 50 and 10 μl of this solution was pipetted into a microtiter plate (96-well format). […] The test plates were incubated in the dark at 24° C. and 96% rh. The inhibition of fungal growth was determined photometrically and visually after 2-4 days, depending on the pathosystem, and percent antifungal activity relative to the untreated check was calculated.
Alternaria solanil/Liquid Culture:
(§2) Conidia of the fungus from cryogenic storage were directly mixed into nutrient broth (PDB potato dextrose broth). After placing a (DMSO) solution of test compound into a microtiter plate (96-well format), the nutrient broth containing the fungal spores was added.

[1] = test system: Mycosphaerella graminicola (Septoria tritici); test: Mycosphaerella graminicola (Septoria tritici) liquid culture growth inhibition; settings: for (B4) Inhibition (%) / (B5) Inhibition (%): PDB; for (B4) Inhibition (%): Table 12; for (B5) Inhibition (%): Table 14
Protocol: as §1
(§3) Mycelia fragments or conidia suspensions of a fungus, prepared either freshly from liquid cultures of the fungus or from cryogenic storage, were directly mixed into nutrient broth. DMSO solutions of the test compound (max. 10 mg/ml) was diluted with 0.025% Tween20 by factor 50 and 10 μl of this solution was pipetted into a microtiter plate (96-well format). The nutrient broth containing the fungal spores/mycelia fragments was then added to give an end concentration of the tested compound. The test plates were incubated in the dark at 24° C. and 96% rh. The inhibition of fungal growth was determined photometrically and visually after 2-4 days, depending on the pathosystem, and percent antifungal activity relative to the untreated check was calculated.
Mycosphaerella graminicola (Septoria tritici)/Liquid Culture:
as §2

Pythium ultimum = Pythium ultimum (seedling damping off) liquid culture growth inhibition; settings: 0.0625 ppm; PDB; Table 10
Protocol: as §1, §3
Pythium ultimum Seedling Damping Off)/Liquid Culture:
Mycelia fragments and oospores of a newly grown liquid culture of the fungus were directly mixed into nutrient broth (PDB potato dextrose broth). After placing a (DMSO) solution of the test compounds into a microtiter plate (96-well format), the nutrient broth containing the fungal mycelia/spore mixture was added.

[2] = test system: Botryotinia fuckeliana (Botrytis cinerea); test: Botryotinia fuckeliana (Botrytis cinerea) liquid culture growth inhibition; settings: in Vogels Broth
Protocol: as §1, §3
Botryotinia fuckeliana (Botrytis cinerea)/Liquid Culture:
Conidia of the fungus from cryogenic storage were directly mixed into nutrient broth (Vogels broth). After placing a (DMSO) solution of test compound into a microtiter plate (96-well format), the nutrient broth containing the fungal spores was added.

Fusarium culmorum = Fusarium culmorum liquid culture growth inhibition; settings: in PDB
Protocol: as §1, §3
Fusarium culmorum/Liquid Culture:
as §2

[3] = test system: Monographella nivalis (Microdochium nivale); test: Monographella nivalis (Microdochium nivale) liquid culture growth inhibition
Protocol: as §1, §3
Monographella nivalis (Microdochium nivale)/Liquid Culture:
as §2

Gaeumannomyces graminis = Gaeumannomyces graminis liquid culture growth inhibition; settings: in PDB
Protocol: as §1, §3
Gaeumannomyces graminis/Liquid Culture:
Mycelial fragments of the fungus from cryogenic storage were directly mixed into nutrient broth (PDB potato dextrose broth). After placing a (DMSO) solution of test compound into a microtiter plate (96-well format), the nutrient broth containing the fungal spores was added.

[4] = Monographella nivalis, read-out: (B10) Inhibition (%)
[5] = Zymoseptoria tritici, read-out: (B10) Inhibition (%)

C=CCSC(=O)n1c(N)c(-c2ccccc2C)c(=O)n1C(C)C [(B2), fenpyrazamine] was tested, and the “(B2) Inhibition (%)” value (Alternaria solani; 0.0313 ppm) was 0% and the “(B2) Inhibition (%)” value (Alternaria solani; 0.0625 ppm) was 1%.
For Cc1cc(C(F)(F)F)nn1CC(=O)N1CCC(c2nc(C3=NOC(c4c(F)cccc4F)C3)cs2)CC1 (stereo not drawn) [(B4), oxathiapiprolin], the “(B4) Inhibition (%)” value (Alternaria solani; 0.0039 ppm) was 0%, the “(B4) Inhibition (%)” value (Alternaria solani; 0.0078 ppm) was 4% and the “(B4) Inhibition (%)” value (Alternaria solani; 0.0156 ppm) was 0%. For the same molecule, the “(B4) Inhibition (%)” value (Alternaria solani; 0.0313 ppm) was 0%, the “(B4) Inhibition (%)” value ([1]; 0.0313 ppm) was 8% and the “(B4) Inhibition (%)” value ([1]; 0.0625 ppm) was 4%. The “(B4) Inhibition (%)” value (Pythium ultimum) was 61%.
Cc1ccc(C(=O)NC[C@@H](NC(=O)OCC(F)(F)F)C(C)C)cc1 [(B5), tolprocarb] was tested, and the “(B5) Inhibition (%)” value (Alternaria solani; 0.0391 ppm) was 0%, the “(B5) Inhibition (%)” value (Alternaria solani; 0.0781 ppm) was 0% and the “(B5) Inhibition (%)” value (Alternaria solani; 0.3125 ppm) was 0%. For the same molecule, the “(B5) Inhibition (%)” value ([1]; 0.0391 ppm) was 7%, the “(B5) Inhibition (%)” value ([1]; 0.0781 ppm) was 1% and the “(B5) Inhibition (%)” value ([1]; 0.1563 ppm) was 4%. The “(B5) Inhibition (%)” value ([1]; 0.6250 ppm) was 1%.
CO/C=C(/C(=O)OC)c1ccccc1COc1ccc(C(F)(F)F)cc1Cl [(B6), flufenoxystrobin, reference compound] was tested, and the “(B6) Inhibition (%)” value (Alternaria solani; 0.0016 ppm, in PDB) was 6%, the “(B6) Inhibition (%)” value (Alternaria solani; 0.0063 ppm, in PDB) was 1% and the “(B6) Inhibition (%)” value ([2]; 0.0063 ppm) was 17%. For the same molecule, the “(B6) Inhibition (%)” value ([2]; 0.0125 ppm) was 23%, the “(B6) Inhibition (%)” value ([2]; 0.0250 ppm) was 33% and the “(B6) Inhibition (%)” value (Fusarium culmorum; 0.0500 ppm) was 5%. For the same molecule, the “(B6) Inhibition (%)” value (Fusarium culmorum; 0.1000 ppm) was 3%, the “(B6) Inhibition (%)” value (Fusarium culmorum; 0.2000 ppm) was 12% and the “(B6) Inhibition (%)” value ([3]; 0.0008 ppm, in PDB) was 23%. The “(B6) Inhibition (%)” value ([3]; 0.0016 ppm, in PDB) was 51%, the “(B6) Inhibition (%)” value ([1]; 0.0031 ppm, in PDB) was 17% and the “(B6) Inhibition (%)” value ([1]; 0.0063 ppm, in PDB) was 23%. For the same molecule, the “(B6) Inhibition (%)” value ([1]; 0.0125 ppm, in PDB) was 33%.
CC1CC(C)(C)c2c(F)ccc(NC(=O)c3cn(C)nc3C(F)F)c21 (stereo not drawn) [(B9)] was tested, and the inhibition at 0.0078 ppm (Alternaria solani; Alternaria solani, 0.0078 ppm, in PDB, read-out: (B9) Inhibition (%)) was 0%, the inhibition at 0.0156 ppm (Alternaria solani; Alternaria solani, 0.0156 ppm, in PDB, read-out: (B9) Inhibition (%)) was 11% and the inhibition at 0.0313 ppm (Alternaria solani; Alternaria solani, 0.0313 ppm, in PDB, read-out: (B9) Inhibition (%)) was 5%. For the same molecule, the inhibition at 0.0625 ppm (Alternaria solani; Alternaria solani, 0.0625 ppm, in PDB, read-out: (B9) Inhibition (%)) was 22%, the inhibition at 0.0039 ppm ([2]; Botrytis cinerea, 0.0039 ppm, read-out: (B9) Inhibition (%)) was 14% and the inhibition at 0.0078 ppm ([2]; Botrytis cinerea, 0.0078 ppm, read-out: (B9) Inhibition (%)) was 19%. It also gave an inhibition at 0.0156 ppm ([2]; Botrytis cinerea, 0.0156 ppm, read-out: (B9) Inhibition (%)) of 31%, an inhibition at 0.0313 ppm ([2]; Botrytis cinerea, 0.0313 ppm, read-out: (B9) Inhibition (%)) of 52% and an inhibition at 0.125 ppm ([3]; Monographella nivalis, 0.1250 ppm, in PDB, read-out: (B9) Inhibition (%)) of 0%. For the same molecule, the inhibition at 0.5 ppm ([3]; Monographella nivalis, 0.5000 ppm, in PDB, read-out: (B9) Inhibition (%)) was 0%, the inhibition at 1 ppm ([3]; Monographella nivalis, 1.0000 ppm, in PDB, read-out: (B9) Inhibition (%)) was 10% and the inhibition at 0.0039 ppm ([1]; Zymoseptoria tritici, 0.0039 ppm, in PDB, read-out: (B9) Inhibition (%)) was 0%. For the same molecule, the inhibition at 0.0156 ppm ([1]; Zymoseptoria tritici, 0.0156 ppm, in PDB, read-out: (B9) Inhibition (%)) was 0%, the inhibition at 0.0313 ppm ([1]; Zymoseptoria tritici, 0.0313 ppm, in PDB, read-out: (B9) Inhibition (%)) was 9% and the inhibition at 0.0625 ppm ([1]; Zymoseptoria tritici, 0.0625 ppm, in PDB, read-out: (B9) Inhibition (%)) was 7%.
For CCCCc1c(C)c2ccc(OCc3ccccc3/C(=C\OC)C(=O)OC)cc2oc1=O [(B10), coumoxystrobin, reference compound], the inhibition at 0.05 ppm (Fusarium culmorum; Fusarium culmorum, 0.0500 ppm, read-out: (B10) Inhibition (%)) was 12%, the inhibition at 0.1 ppm (Fusarium culmorum; Fusarium culmorum, 0.1000 ppm, read-out: (B10) Inhibition (%)) was 8% and the inhibition at 0.2 ppm (Fusarium culmorum; Fusarium culmorum, 0.2000 ppm, read-out: (B10) Inhibition (%)) was 11%. The inhibition at 0.0008 ppm [3, 4] was 46%, the inhibition at 0.0016 ppm [3, 4] was 81% and the inhibition at 0.0016 ppm [1, 5] was 5%. For the same molecule, the inhibition at 0.0031 ppm [1, 5] was 13% and the inhibition at 0.0063 ppm [1, 5] was 31%.
In the case of CNC(=O)C(OC)c1ccccc1COc1cc(C)ccc1C (stereo not drawn) [(B11), mandestrobin, reference compound], the “(B11) Inhibition (%)” value (Alternaria solani; 0.0008 ppm, in PDB) is reported as 0%, the “(B11) Inhibition (%)” value (Alternaria solani; 0.0016 ppm, in PDB) is reported as 3% and the “(B11) Inhibition (%)” value (Alternaria solani; 0.0031 ppm, in PDB) is reported as 0%. The “(B11) Inhibition (%)” value (Alternaria solani; 0.0063 ppm, in PDB) was 12%, the “(B11) Inhibition (%)” value ([2]; 0.0016 ppm) was 5% and the “(B11) Inhibition (%)” value ([2]; 0.0250 ppm) was 0%. For the same molecule, the “(B11) Inhibition (%)” value ([2]; 0.0500 ppm) was 8%, the “(B11) Inhibition (%)” value (Fusarium culmorum; 0.1000 ppm) was 0% and the “(B11) Inhibition (%)” value (Fusarium culmorum; 0.2000 ppm) was 11%. The “(B11) Inhibition (%)” value (Gaeumannomyces graminis; 0.0500 ppm) was 17%, the “(B11) Inhibition (%)” value (Gaeumannomyces graminis; 0.1000 ppm) was 53% and the “(B11) Inhibition (%)” value ([3]; 0.0250 ppm, in PDB) was 0%.
CC(=O)Oc1c(C)c(C)nc2c(F)cc(C(C)(C)C)cc12 [(B12), tebufloquin, reference compound] was tested, and the “(B12) Inhibition (%)” value (Alternaria solani; 0.0156 ppm, in PDB) was 0%, the “(B12) Inhibition (%)” value (Alternaria solani; 0.0313 ppm, in PDB) was 1% and the “(B12) Inhibition (%)” value ([2]; 0.0313 ppm) was 5%. For the same molecule, the “(B12) Inhibition (%)” value ([2]; 0.1250 ppm) was 0%, the “(B12) Inhibition (%)” value ([3]; 0.2500 ppm, in PDB) was 7% and the “(B12) Inhibition (%)” value ([3]; 0.5000 ppm, in PDB) was 60%.
With COC(=O)N(OC)c1ccccc1COc1nc(Cl)c(Cl)cc1Cl [(B13), triclopyricarb, reference compound] the “(B13) Inhibition (%)” value ([2]; (B13) triclopyricarb alone at 0.0125 ppm) was 8%, the “(B13) Inhibition (%)” value ([2]; (B13) triclopyricarb alone at 0.0250 ppm) was 18% and the “(B13) Inhibition (%)” value (Fusarium culmorum; 0.0500 ppm) was 11%. The “(B13) Inhibition (%)” value (Fusarium culmorum; 0.1000 ppm) was 10%, the “(B13) Inhibition (%)” value (Fusarium culmorum; 0.2000 ppm) was 11% and the “(B13) Inhibition (%)” value ([3]; (B13) triclopyricarb alone at 0.0016 ppm, in PDB) was 23%. The “(B13) Inhibition (%)” value ([3]; (B13) triclopyricarb alone at 0.0031 ppm, in PDB) was 51%.
With CCN(C)/C=N/c1cc(C)c(Oc2nc(Cc3ccc(Cl)cc3)ns2)cc1C [(B14), N′-[4-[[3-[(4-chlorophenyl)methyl]-1,2,4-thiadiazol-5-yl]oxy]-2,5-dimethylphenyl]-N-ethyl-N-methyl-methanimidamide, reference compound] the inhibition at 0.25 ppm ([3]; Monographella nivalis, (B14) compound of formula IV alone at 0.2500 ppm, in PDB) was 40%.
